Results from ChEMBL document CHEMBL5108032, “Innovation Experiences from Africa-Led Drug Discovery at the Holistic Drug Discovery and Development (H3D) Centre” (ACS Med Chem Lett, 2022).
Converted amounts (≈) assume the structure as drawn.

Test system: Mycobacterium tuberculosis
Assay: Antimycobacterial activity against Mycobacterium tuberculosis H37Rv assessed as inhibition of visible growth incubated for 7 days
Format: functional
Conditions: 168 h, time 7 day

Question: For `Cc1nnc(-c2noc3c(F)c4c(cc23)CC2(C(=O)NC(=O)NC2=O)[C@H]2[C@H](C)O[C@H](C)CN42)o1`, which MIC is on record?
Answer: Its MIC is 1.7 µM (≈ 0.8 µg/mL).
